Laboratory results published in patent US12110289B2, “Heterocyclic compounds, preparation methods and uses thereof” (InventisBio Co., Ltd., priority 2020, dated 2024).

System: Lung cancer cell line NCI-H358 containing KRas G12C mutation
Assay: Assay for cell proliferation (Cell-titer Glo, 5 days)
Type: cell-based, human
Settings: Homo sapiens, NCI-H358, 120 h, NCI-H358, 5 days, Cell-titer Glo; read-out: IC50 (nM), Inhibition of NCI-H358 Cell Proliferation
Experimental: One hundred fifty microliter (150 μL) of media containing 2000 cells per well were seeded into each well of a 96-well culture plate and left to attach overnight in a 37° C. incubator with 5% CO2. Diluted compounds of 0.75 μL for each well were added by liquid handler at a final concentration of 0.5% DMSO. Cells were treated for 5 days in the incubator. Cell-titer Glo (CTG) kit (Promega) was used to assess cell proliferation. Of note, 120 μL of CTG reagent was added to each well and incubated at RT for 10 minutes.

IC50 | Structure (SMILES)
386 nM | C=CC(=O)N1C[C@H](C)N(c2nc(=O)n(-c3c(F)cc4c(ncn4C)c3C3CC3)c3nc(-c4c(N)cccc4F)c(F)cc23)C[C@H]1C (atropisomer, axis not shown) [Compound 179]
44.2 nM | C=CC(=O)N1CCN(c2nc(=O)n(-c3c(C)nc4c(ncn4C)c3C(C)C)c3nc(-c4c(O)cccc4F)c(F)cc23)[C@@H](C)C1 (single isomer, unassigned) [Compound 163]

Same assay, conditions: NCI-H358, 5 days, Cell-titer Glo; read-out: IC50 (nM), Inhibition of NCI-H358 Cell Proliferation

Structure (SMILES) | IC50
C=CC(=O)N1CCN(c2nc(=O)n(-c3c(C)cc4c(ncn4C)c3C(C)C)c3nc(-c4c(N)cccc4F)c(Cl)cc23)[C@@H](C)C1 (atropisomer, axis not shown) [Compound 151] | 16.2 nM
C=CC(=O)N1CCN(c2nc(=O)n(-c3c(C)cc4c(ncn4C)c3C(C)C)c3nc(-c4ccccc4F)c(Cl)cc23)[C@@H](C)C1 (single isomer, unassigned) [Compound 141] | 38 nM
C=CC(=O)N1CCN(c2nc(=O)n(-c3c(C)cc4c(ncn4C)c3C(C)C)c3nc(-c4ccccc4F)c(Cl)cc23)[C@@H](C)C1 (single isomer, unassigned) [Compound 142] | 2.2 nM
C=CC(=O)N1CCN(c2nc(=O)n(-c3c(F)cc4c(ncn4C)c3C(C)C)c3nc(-c4c(N)cccc4F)c(F)cc23)[C@@H](C)C1 (single isomer, unassigned) [Compound 143] | 1300 nM
C=CC(=O)N1CCN(c2nc(=O)n(-c3c(F)cc4c(ncn4C)c3C(C)C)c3nc(-c4c(N)cccc4F)c(F)cc23)[C@@H](C)C1 (single isomer, unassigned) [Compound 144] | 2.5 nM
C=CC(=O)N1CCN(c2nc(=O)n(-c3c(C)cc4c(ncn4C)c3C(C)C)c3nc(-c4c(N)cccc4F)c(F)cc23)[C@@H](C)C1 (single isomer, unassigned) [Compound 147] | 2.7 nM
C=CC(=O)N1CCN(c2nc(=O)n(-c3c(C)cc4c(ncn4C)c3C(C)C)c3nc(-c4c(N)cccc4F)c(F)cc23)[C@@H](C)C1 (single isomer, unassigned) [Compound 148] | 78.6 nM
C=CC(=O)N1C[C@H](C)N(c2nc(=O)n(-c3c(C)nc4c(ncn4C)c3C(C)C)c3nc(-c4c(N)cccc4F)c(F)cc23)C[C@H]1C (single isomer, unassigned) [Compound 164] | > 1000 nM
C=CC(=O)N1C[C@H](C)N(c2nc(=O)n(-c3c(C)nc4c(ncn4C)c3C(C)C)c3nc(-c4c(N)cccc4F)c(F)cc23)C[C@H]1C (single isomer, unassigned) [Compound 165] | 157 nM
C=CC(=O)N1C[C@H](C)N(c2nc(=O)n(-c3c(C)nc4c(ncn4C)c3C(C)C)c3nc(-c4ccccc4F)c(Cl)cc23)C[C@H]1C (single isomer, unassigned) [Compound 167] | 0.8 nM
C=CC(=O)N1C[C@H](C)N(c2nc(=O)n(-c3c(C)nc4c(ncn4C)c3C(C)C)c3nc(-c4ccccc4F)c(Cl)cc23)C[C@H]1C (single isomer, unassigned) [Compound 168] | 20.3 nM
C=CC(=O)N1C[C@H](C)N(c2nc(=O)n(-c3c(F)cc4c(ncn4C)c3C3CC3)c3nc(-c4c(N)cccc4F)c(Cl)cc23)C[C@H]1C (single isomer, unassigned) [Compound 177] | 73.7 nM

Continued, values first:

IC50 | Structure (SMILES)
12.8 nM | C=CC(=O)N1C[C@H](C)N(c2nc(=O)n(-c3c(C)cc4c(ncn4C)c3C(C)C)c3nc(-c4c(O)cccc4F)c(Cl)cc23)C[C@H]1C (single isomer, unassigned) [Compound 149]
1.1 nM | C=CC(=O)N1C[C@H](C)N(c2nc(=O)n(-c3c(C)cc4c(ncn4C)c3C(C)C)c3nc(-c4c(O)cccc4F)c(Cl)cc23)C[C@H]1C (single isomer, unassigned) [Compound 150]
172 nM | C=CC(=O)N1C[C@H](C)N(c2nc(=O)n(-c3c(C)cc4c(ncn4C)c3C(C)C)c3nc(-c4c(N)cccc4F)c(F)cc23)C[C@H]1C (single isomer, unassigned) [Compound 153]
1.4 nM | C=CC(=O)N1C[C@H](C)N(c2nc(=O)n(-c3c(C)cc4c(ncn4C)c3C(C)C)c3nc(-c4c(N)cccc4F)c(F)cc23)C[C@H]1C (single isomer, unassigned) [Compound 154]
60 nM | C=CC(=O)N1CCN(c2nc(=O)n(-c3c(C)cc4c(ncn4C)c3C(C)C)c3nc(-c4c(O)cccc4F)c(F)cc23)[C@@H](C)C1 (single isomer, unassigned) [Compound 155]
6.9 nM | C=CC(=O)N1CCN(c2nc(=O)n(-c3c(C)cc4c(ncn4C)c3C(C)C)c3nc(-c4c(O)cccc4F)c(F)cc23)[C@@H](C)C1 (single isomer, unassigned) [Compound 156]
64.2 nM | C=CC(=O)N1C[C@H](C)N(c2nc(=O)n(-c3c(C)cc4c(ncn4C)c3C(C)C)c3nc(-c4ccccc4F)c(Cl)cc23)C[C@H]1C (single isomer, unassigned) [Compound 159]
1.3 nM | C=CC(=O)N1C[C@H](C)N(c2nc(=O)n(-c3c(C)cc4c(ncn4C)c3C(C)C)c3nc(-c4ccccc4F)c(Cl)cc23)C[C@H]1C (single isomer, unassigned) [Compound 160]
32.4 nM | C=CC(=O)N1C[C@H](C)N(c2nc(=O)n(-c3c(C)cc4c(ncn4C)c3C(C)C)c3nc(-c4c(N)cccc4F)c(Cl)cc23)C[C@H]1C (single isomer, unassigned) [Compound 161]
0.5 nM | C=CC(=O)N1C[C@H](C)N(c2nc(=O)n(-c3c(C)cc4c(ncn4C)c3C(C)C)c3nc(-c4c(N)cccc4F)c(Cl)cc23)C[C@H]1C (single isomer, unassigned) [Compound 162]
119 nM | C=CC(=O)N1C[C@H](C)N(c2nc(=O)n(-c3c(F)cc4c(ncn4C)c3C(C)C)c3nc(-c4ccccc4F)c(Cl)cc23)C[C@H]1C (single isomer, unassigned) [Compound 169]
1 nM | C=CC(=O)N1C[C@H](C)N(c2nc(=O)n(-c3c(F)cc4c(ncn4C)c3C(C)C)c3nc(-c4ccccc4F)c(Cl)cc23)C[C@H]1C (single isomer, unassigned) [Compound 170]
15.6 nM | C=CC(=O)N1C[C@H](C)N(c2nc(=O)n(-c3c(C)nc4c(ncn4C)c3C(C)C)c3nc(-c4c(O)cccc4F)c(Cl)cc23)C[C@H]1C (single isomer, unassigned) [Compound 171]
1.2 nM | C=CC(=O)N1C[C@H](C)N(c2nc(=O)n(-c3c(C)nc4c(ncn4C)c3C(C)C)c3nc(-c4c(O)cccc4F)c(Cl)cc23)C[C@H]1C (single isomer, unassigned) [Compound 172]
23.5 nM | C=CC(=O)N1C[C@H](C)N(c2nc(=O)n(-c3c(F)cc4c(ncn4C)c3C(C)C)c3nc(-c4c(N)cccc4F)c(Cl)cc23)C[C@H]1C (single isomer, unassigned) [Compound 173]
0.2 nM | C=CC(=O)N1C[C@H](C)N(c2nc(=O)n(-c3c(F)cc4c(ncn4C)c3C(C)C)c3nc(-c4c(N)cccc4F)c(Cl)cc23)C[C@H]1C (single isomer, unassigned) [Compound 174]
16.1 nM | C=CC(=O)N1C[C@H](C)N(c2nc(=O)n(-c3c(C)nc4c(ncn4C)c3C(C)C)c3nc(-c4c(N)cccc4F)c(Cl)cc23)C[C@H]1C (single isomer, unassigned) [Compound 175]
0.5 nM | C=CC(=O)N1C[C@H](C)N(c2nc(=O)n(-c3c(C)nc4c(ncn4C)c3C(C)C)c3nc(-c4c(N)cccc4F)c(Cl)cc23)C[C@H]1C (single isomer, unassigned) [Compound 176]
